Measured values published in publication PMC12526212, “Novel Isolongifolenone-Based Caprolactam Derivatives as Potential Anticancer Agents via the p53/mTOR/Autophagy Pathway” (Molecules, 2025).

Assays:
[1] = tested on: LO2; assay: CCK-8 cytotoxicity on normal cell line LO2; type: cell-based; conditions: Homo sapiens, L02; normal liver cells, CCK-8, 48 h, mean ± SD of three experiments
Experimental: Three cancer cell lines (human breast adenocarcinoma cells MCF-7, human lung adenocarcinoma epithelial cells A549, and human hepatocellular carcinoma cells HepG2) were obtained from the Cell Bank of the Chinese Academy of Sciences (Shanghai, China). LO2 human normal liver cells were also purchased from STEM RECELL (Beijing, China, STM-CL-5770). The anti-proliferation activity of compounds was tested on three cancer cell lines. The cytotoxicity of compounds as tested on normal cell line (human normal liver cells LO2). Cells were seeded at a density of 5000 cells per well in 96-well plates. Natural product piperlongumine was used as the positive control. All experiments were performed in triplicate. Three cancer cell lines were cultured in High DMEM medium or RIPM 1640 containing 10% FBS (Sijiqing, Hangzhou, China) and 1% antibiotics at 37 °C in a 5% CO2 incubator. The experimental cells were seeded in a 96-well plate at 5000 cells per well and incubated for 24 h. The old medium was replaced with experimental medium, and the cells were cultured for 48 h. Afterward, 10 µL of CCK-8 solution was added to each well, and the cells were incubated for 3 h. The absorbance at 450 nm was measured using a microplate reader.

[2] = tested on: MCF-7 cells; assay: Western blotting of autophagy, AMPK-mTOR and apoptosis proteins; type: cell-based, human
Experimental: MCF-7 exponentially growing cells were plated in 6-well plates (2 × 10^5 cells/well). Then, derivatives E10 (0.5, 1.0 and 2.0 μM) were added to the well. After incubation for an additional 48 h, the cell culture medium was removed, and the cells were washed twice with ice-cold PBS. Subsequently, the cells were lysed to extract the total protein and centrifuged at 12,000 rpm for 5 min at 4 °C using lysis buffer (Beyotime, Shanghai, China, Cat. # P0013E). All protein concentrations were determined using a BCA kit. Equal amounts of protein (20–30 µg per lane) were loaded onto the gel. An equal amount of protein was analyzed using 12% SDS-PAGE gels and transferred to Hybond-P membrane containing polyvinylidene difluoride (PVDF). The membranes were then blocked with BSA for 2 h at room temperature and incubated with primary antibodies against p-mTOR (ImmunoWay Biotechnology, Beijing, China, YP1444, 1:5000), P62 (Proteintech Group, Inc., Wuhan, China, 60268-1-IG, 1:5000), LC3-I/II (Proteintech Group, Inc., Wuhan, China, 10253-2-AP, 1:5000) and p-AMPK, AMPK, Bcl-2, Bax, Cleaved-caspase 7 (ImmunoWay Biotechnology, Beijing, China, YP0251, 1:5000) overnight at 4 °C and with secondary antibodies (AP-conjugated goat anti-rabbit or anti-mouse, 1:10,000) for 2 h. Densitometry was performed in ImageJ 2 within the linear range. Targets were normalized to β-actin (or to the corresponding total protein for phospho-target), then expressed relative to vehicle (0.1% DMSO = 1.0). Where indicated, ratios such as LC3-II/LC3-I and Bax/Bcl-2 were calculated per lane before statistics.

[3] = tested on: MCF-7 cells; assay: Autophagy assay using transmission electron microscopy; type: cell-based, human; conditions: 24 h
Experimental: To investigate whether E10 induced autophagy in MCF-7 cells, we performed Monodansylcadaverine (MDC) staining, transmission electron microscopy (TEM), and Western blot analysis to evaluate autophagy-related markers. MDC is a fluorescent probe commonly used to detect the formation of autophagic vacuoles, as it specifically labels autophagosomes.
MCF-7 cells were treated with E10 for 24 h. Cells were washed twice with pre-cold PBS, fixed in 2% glutaraldehyde at 4 °C for 2 h. Then, the sample was post-fixed in 2% osmium tetroxide for 1 h at 4 °C in the dark. Samples were dehydrated through a graded ethanol series, infiltrated and embedded in Spurr’s resin, and polymerized at 60 °C overnight. Ultrathin sections (~70–90 nm) were cut on an ultramicrotome, mounted on copper grids, counterstained with uranyl acetate and lead citrate, and examined by transmission electron microscopy (JEM-100CX; JEOL, Tokyo, Japan) at the indicated magnifications.

[4] = tested on: MCF-7 cells; assay: MMP assay (JC-1, flow cytometry); type: cell-based, human; conditions: 24 h
Experimental: If intracellular ROS levels rise above a certain threshold, the mitochondria may become damaged. […] In these experiments, MCF-7 cells were incubated with E10 for 24 h, and mitochondrial membrane potential (MMP) was then evaluated by flow cytometry using JC-1 as an indicator. […] These changes in the red/green fluorescence ratio are indicative of mitochondrial depolarization, a decrease in mitochondrial function, and potentially damage to mitochondria.
MCF-7 cells were treated with different concentrations of compound E10 for 24 h. After that, the cells were collected and stained with JC-1 (Yeasen, Shanghai, China, 40706ES60) for 15 min. The cell samples were detected by flow cytometry (BD) and the data were analyzed by flowjo 10.6 software.

[5] = tested on: MCF-7 cells; assay: Cell cycle assay (PI, flow cytometry); type: cell-based, human; conditions: 0.5, 1.0, 2.0 µM, 24 h
Experimental: As a cell progresses into different cell cycle phases, its DNA content varies because of DNA synthesis (which is required to prepare additional chromosome copies prior to cell division). Consequently, a flow cytometric analysis of DNA content can provide information on the number of cells in different cell cycle phases.
For cell cycle analysis, MCF-7 cells were seeded at a density of 2 × 10^5 cells per well in 6-well plates. MCF-7 cells were treated with different concentrations of compound E10 for 24 h. After that, the cells were washed with PBS twice, collected by trypsin enzymic digestion and centrifugation, and the collected cells were subsequently fixed with 70% ice-cold ethanol overnight at 4 °C. The cells were stained with PI (50 μg/mL) the next day. The cell cycle distributions were measured through flow cytometry (BD), and the data were analyzed by Modfit 5.1 software.

[6] = tested on: MCF-7 cells; assay: Comet assay (DNA damage); type: cell-based, human; conditions: 24 h
Experimental: DNA fragmentation is a hallmark of apoptosis, mitotic catastrophe, or both. DNA damage in MCF-7 cells was investigated by single-cell gel electrophoresis in an agarose gel matrix (the ‘comet assay’). In this assay, the length of the ‘comet tail’ observed after EB staining of the cell nuclei is an indicator of the extent of DNA damage.
MCF-7 cells were seeded in 24-well plastic plates at a density of 5 × 10^4 cells per well and treated with compound E10 for 24 h. The alkaline DNA comet assay was performed according to the instructions of the OxiSelectTM Comet Assay Kit (Cell Biolabs, San Diego, CA, USA, Cat. # STA-350) and analyzed using a Zeiss fluorescent microscope (Jena, Germany). The free software Casplab-1.2.3b2 (CAS PLab, Wroclaw, Poland) was used to calculate the percentage of tail DNA and Olive Tail Moment (OTM) as markers of DNA damage (Olive Tail Moment = Tail DNA (%) × Tail Moment Length).

**Q.** For CC1(C)C2=CC(=O)N(C(=O)C=Cc3cccc(C(F)(F)F)c3)CC(C)(C)C23CCC1C3 (centres unmarked) [E10, 5,5,9,9-Tetramethyl-3-(3-(3-(trifluoromethyl)phenyl)acryloyl)-4,5,6,7,8,9-hexahydro-5a,8-methanobenzo[d]azepin-2(3H)-one], which IC50 [1] is on record?
**A.** The IC50 was 14.41 ± 0.04 µM.

**Q.** And the AMPK phosphorylation levels ([2]; E10 0.5, 1.0, 2.0 μM)?
**A.** The AMPK phosphorylation levels was “increased”.

**Q.** What about the mTOR phosphorylation levels ([2]; E10 0.5, 1.0, 2.0 μM) of the same molecule?
**A.** The mTOR phosphorylation levels was “strongly decreased”.

**Q.** What about the p62 expression ([2]; E10 0.5, 1.0, 2.0 μM) of the same molecule?
**A.** Its p62 expression is “decrease”.

**Q.** And the “LC3-I and LC3-II expression levels” value ([2]; after E10 treatment)?
**A.** The value was “up-regulated”.

**Q.** And the Bax expression ([2]; compared with control)?
**A.** Its Bax expression is “higher levels”.

**Q.** And the Bcl-2 expression ([2]; compared with control)?
**A.** The Bcl-2 expression was “down-regulated”.

**Q.** What about the “cleaved caspase-7 expression” value ([2]; dose-dependent) of the same molecule?
**A.** Its value is “dramatically up-regulated”.

**Q.** And the p53 expression ([2]; dose-dependent)?
**A.** The p53 expression was “dramatically up-regulated”.

**Q.** What about the “ratio of LC3-II/LC3-I” value ([2]; increasing concentrations of E10 (0.5, 1.0, 2.0 μM)) of the same molecule?
**A.** The value was “increased gradually”.

**Q.** What about the “TEM, autophagic vesicles” value [3] of the same molecule?
**A.** Its value is “presence of membrane-bound autophagic vesicles”.

**Q.** And the “mitochondrial membrane potential” value [4]?
**A.** Its value is “concentration-dependent reduction in MMP”.

**Q.** And the “effect on cell cycle” value [5]?
**A.** The value was “cell cycle arrest at the G0/G1 phase”.

**Q.** What about the “DNA damage, comet formation” value [6] of the same molecule?
**A.** Its value is “induced DNA fragmentation”.
